Test results reported in patent US20240173307A1, “MODULATORS OF THE INTEGRATED STRESS PATHWAY” (Calico Life Sciences LLC, priority 2017, published 2024).

Test system: HEK293T cells carrying the ATF4 luciferase reporter
Test: ATF4-Luc assay (in vitro model of vanishing white matter disease)
Type: cell-based
Conditions: Homo sapiens, HEK-293T, 1 μg/mL tunicamycin, 7 hours
Method: In order to test exemplary compounds of the invention in a cellular context, a stable VWMD cell line was first constructed. The ATF4 reporter was prepared by fusing the human full-length ATF4 5′-UTR (NCBI Accession No. BCO22088.2) in front of the firefly luciferase (FLuc) coding sequence lacking the initiator methionine as described in Sidrauski et al (eLife 2013). The construct was used to produce recombinant retroviruses using standard methods and the resulting viral supernatant was used to transduce HEK293T cells, which were then subsequently selected with puromycin to generate a stable cell line.
HEK293T cells carrying the ATF4 luciferase reporter were plated on polylysine coated 384-well plates (Greiner Bio-one) at 30,000 cells per well. Cells were treated the next day with 1 μg/mL tunicamycin and 200 nM of a compound of Formula (I) for 7 hours. Luminescence was measured using One Glo (Promega) as specified by the manufacturer. Cells were maintained in DMEM with L-glutamine supplemented with 10% heat-inactivated FBS (Gibco) and Antibiotic-Antimycotic solution (Gibco).
Table 2 below summarizes the EC50 data obtained using the ATF4-Luc assay for exemplary compounds of the invention.

| Compound | EC50 |
| --- | --- |
| O=C(COc1ccc(Cl)c(F)c1)NC12CC(C(=O)NCCOc3ccc(Cl)c(F)c3)(C1)C2 [Compound 340, 3-[2-(4-chloro-3-fluorophenoxy)acetamido]-N-[2-(4-chloro-3-fluorophenoxy)ethyl]bicyclo[1.1.1]pentane-1-carboxamide] | < 250 nM |
| O=C(COc1ccc2c(c1)OC(F)(F)O2)NC12CC(C(=O)Nc3ccc(OC(F)(F)F)cn3)(C1)C2 [Compound 294, 3-{2-[(2,2-difluoro-2H-1,3-benzodioxol-5-yl)oxy]acetamido}-N-[5-(trifluoromethoxy)pyridin-2-yl]bicyclo[1.1.1]pentane-1-carboxamide] | < 250 nM |
| COc1ccc(CNC(=O)C23CC(NC(=O)COc4ccc(Cl)c(F)c4)(C2)C3)nn1 [Compound 322, 3-[2-(4-chloro-3-fluorophenoxy)acetamido]-N-[(6-methoxypyridazin-3-yl)methyl]bicyclo[1.1.1]pentane-1-carboxamide] | > 2000 nM |
| O=C(COc1ccc(Cl)c(F)c1)NC12CCC(C(=O)Nc3ccc(OC(F)(F)F)nc3)(CC1)OC2 [Compound 341, 4-[2-(4-chloro-3-fluorophenoxy)acetamido]-N-[6-(trifluoromethoxy)pyridin-3-yl]-2-oxabicyclo[2.2.2]octane-1-carboxamide] | < 250 nM |
| O=C(COc1ccc(Cl)c(F)c1)NC12CCC(C(=O)NCc3ccc(C(F)(F)F)cc3)(CC1)[C@@H](O)C2 (single isomer, unassigned) [Compound 266] | < 250 nM |
| O=C(COc1ccc(Cl)c(F)c1)NC12CC(C(=O)NCCCc3cccnc3)(C1)C2 [Compound 253, 3-[2-(4-chloro-3-fluorophenoxy)acetamido]-N-[3-(pyridin-3-yl)propyl]bicyclo[1.1.1]pentane-1-carboxamide] | 1000 to 2000 nM |
| O=C(COc1ccc(Cl)c(F)c1)NC12CCC(C(=O)Nc3ccc(Cl)c(F)c3)(CC1)OC2 [Compound 338, 4-[2-(4-chloro-3-fluorophenoxy)acetamido]-N-(4-chloro-3-fluorophenyl)-2-oxabicyclo[2.2.2]octane-1-carboxamide] | < 250 nM |
| O=C(COc1ccc(Cl)c(F)c1)NC12CCC(C(=O)Nc3ccc(C(F)(F)F)cn3)(CC1)C(O)C2 (stereo not shown) [Compound 316, 4-[2-(4-chloro-3-fluorophenoxy)acetamido]-2-hydroxy-N-[5-(trifluoromethyl)pyridin-2-yl]bicyclo[2.2.2]octane-1-carboxamide] | 500 to 1000 nM |
| O=C(COc1ccc(Cl)c(F)c1)NC12CCC(C(=O)NCc3ccc(C(F)(F)F)cc3)(CC1)C(O)C2 (stereo not shown) [Compound 110, 4-[2-(4-chloro-3-fluorophenoxy)acetamido]-2-hydroxy-N-{[4-(trifluoromethyl)phenyl]methyl}bicyclo[2.2.2]octane-1-carboxamide] | < 250 nM |
| Cn1c(CNC(=O)C23CCC(NC(=O)COc4ccc(Cl)c(F)c4)(CC2)CC3)nc2cc(F)ccc21 [Compound 323, 4-[2-(4-chloro-3-fluorophenoxy)acetamido]-N-[(5-fluoro-1-methyl-1H-benzimidazol-2-yl)methyl]bicyclo[2.2.2]octane-1-carboxamide] | < 250 nM |
| O=C(COc1ccc(Cl)c(F)c1)NC12CCC(C(=O)NCC(=O)c3ccc(Cl)c(F)c3)(CC1)[C@H](O)C2 [Compound 347, (2R)-4-[2-(4-chloro-3-fluorophenoxy)acetamido]-N-[2-(4-chloro-3-fluorophenyl)-2-oxoethyl]-2-hydroxybicyclo[2.2.2]octane-1-carboxamide] | < 250 nM |
| O=C(COc1ccc(Cl)c(F)c1)NC12CC(C(=O)N(CCO)Cc3ccc(Cl)c(F)c3)(C1)C2 [Compound 343, 3-[2-(4-chloro-3-fluorophenoxy)acetamido]-N-[(4-chloro-3-fluorophenyl)methyl]-N-(2-hydroxyethyl)bicyclo[1.1.1]pentane-1-carboxamide] | 1000 to 2000 nM |
| Cc1cnc(NC(=O)C23CC(NC(=O)COc4ccc(Cl)c(F)c4)(C2)C3)cn1 [Compound 304, 3-[2-(4-chloro-3-fluorophenoxy)acetamido]-N-(5-methylpyrazin-2-yl)bicyclo[1.1.1]pentane-1-carboxamide] | < 250 nM |
| O=C(COc1ccc(Cl)c(Cl)c1)NC12CC(C(=O)Nc3cccnc3)(C1)C2 [Compound 295, 3-[2-(3,4-dichlorophenoxy)acetamido]-N-(pyridin-3-yl)bicyclo[1.1.1]pentane-1-carboxamide] | < 250 nM |
| O=C(COc1ccc(Cl)c(F)c1)NC12CC(C(=O)Nc3ccc(OCC(F)(F)F)nc3)(C1)C2 [Compound 310, 3-[2-(4-chloro-3-fluorophenoxy)acetamido]-N-[6-(2,2,2-trifluoroethoxy)pyridin-3-yl]bicyclo[1.1.1]pentane-1-carboxamide] | < 250 nM |
| CC(NC(=O)C12CC(NC(=O)COc3ccc(Cl)c(F)c3)(C1)C2)c1cc2cc(Cl)ccc2o1 (stereo not shown) [Compound 330, N-[1-(5-chloro-1-benzofuran-2-yl)ethyl]-3-[2-(4-chloro-3-fluorophenoxy)acetamido]bicyclo[1.1.1]pentane-1-carboxamide] | 1000 to 2000 nM |

| Compound | EC50 |
| --- | --- |
| O=C(COc1ccc(Cl)c(F)c1)NC12CC(C(=O)NCc3ccc(C(F)F)cn3)(C1)C2 [Compound 345, 3-[2-(4-chloro-3-fluorophenoxy)acetamido]-N-{[5-(difluoromethyl)pyridin-2-yl]methyl}bicyclo[1.1.1]pentane-1-carboxamide] | 250 to 500 nM |
| COc1cnc(NC(=O)C23CC(NC(=O)COc4ccc(Cl)c(F)c4)(C2)C3)nc1 [Compound 302, 3-[2-(4-chloro-3-fluorophenoxy)acetamido]-N-(5-methoxypyrimidin-2-yl)bicyclo[1.1.1]pentane-1-carboxamide] | 250 to 500 nM |
| O=C(COc1ccc(Cl)c(F)c1)NC12CC(C(=O)Nc3ccc(C4CC4)cn3)(C1)C2 [Compound 306, 3-[2-(4-chloro-3-fluorophenoxy)acetamido]-N-(5-cyclopropylpyridin-2-yl)bicyclo[1.1.1]pentane-1-carboxamide] | < 250 nM |
| O=C(COc1ccc(Cl)c(F)c1)NC12CCC(C(=O)NCc3ccc(C(F)(F)F)cc3)(CC1)[C@H](O)C2 (single isomer, unassigned) [Compound 267] | < 250 nM |
| O=C(COc1ccc(Cl)c(F)c1)NC12CC(C(=O)Nc3ccccn3)(C1)C2 [Compound 290, 3-[2-(4-chloro-3-fluorophenoxy)acetamido]-N-(pyridin-2-yl)bicyclo[1.1.1]pentane-1-carboxamide] | < 250 nM |
| O=C(COc1ccc(Cl)c(F)c1)NC12CC(C(=O)Nc3ccc(OC(F)F)cn3)(C1)C2 [Compound 309, 3-[2-(4-chloro-3-fluorophenoxy)acetamido]-N-[5-(difluoromethoxy)pyridin-2-yl]bicyclo[1.1.1]pentane-1-carboxamide] | < 250 nM |
| O=C(COc1ccc(Cl)c(F)c1)NC12CC(C(=O)Nc3ccc(OC(F)(F)F)cn3)(C1)C2 [Compound 287, 3-[2-(4-chloro-3-fluorophenoxy)acetamido]-N-[5-(trifluoromethoxy)pyridin-2-yl]bicyclo[1.1.1]pentane-1-carboxamide] | < 250 nM |
| NC(=O)c1ccc(CNC(=O)C23CC(NC(=O)COc4ccc(Cl)c(F)c4)(C2)C3)nc1 [Compound 339, 6-[({3-[2-(4-chloro-3-fluorophenoxy)acetamido]bicyclo[1.1.1]pentane-1-carbonyl}amino)methyl]pyridine-3-carboxamide] | > 2000 nM |
| O=C(COc1ccc(Cl)c(F)c1)NC12CCC(C(=O)NCc3ccc(C(F)(F)F)cc3)(CC1)C[C@H]2O (single isomer, unassigned) [Compound 269] | < 250 nM |
| O=C(COc1ccc(Cl)c(F)c1)NC12CC(C(=O)NCCc3c[nH]c4ccccc34)(C1)C2 [Compound 194, 3-[2-(4-chloro-3-fluorophenoxy)acetamido]-N-[2-(1H-indol-3-yl)ethyl]bicyclo[1.1.1]pentane-1-carboxamide] | < 250 nM |
| O=C(COc1ccc(Cl)c(F)c1)NC12CC(C(=O)Nc3cccnc3)(C1)C2 [Compound 300, 3-[2-(4-chloro-3-fluorophenoxy)acetamido]-N-(pyridin-3-yl)bicyclo[1.1.1]pentane-1-carboxamide] | < 250 nM |
| O=C(COc1ccc(Cl)c(F)c1)NC12CCC(C(=O)NCc3nc4cc(F)c(F)cc4[nH]3)(CC1)CC2O (stereo not shown) [Compound 319, 4-[2-(4-chloro-3-fluorophenoxy)acetamido]-N-[(5,6-difluoro-1H-benzimidazol-2-yl)methyl]-3-hydroxybicyclo[2.2.2]octane-1-carboxamide] | < 250 nM |
| O=C(COc1ccc(Cl)c(F)c1)NC12CCC(C(=O)Nc3ccc(OC(F)(F)F)nc3)(CC1)CC2 [Compound 280, 4-[2-(4-chloro-3-fluorophenoxy)acetamido]-N-[6-(trifluoromethoxy)pyridin-3-yl]bicyclo[2.2.2]octane-1-carboxamide] | < 250 nM |
| O=C(COc1ccc(Cl)c(F)c1)NC12CCC(C(=O)NCc3nc4ccccc4[nH]3)(CC1)CC2 [Compound 327, N-[(1H-benzimidazol-2-yl)methyl]-4-[2-(4-chloro-3-fluorophenoxy)acetamido]bicyclo[2.2.2]octane-1-carboxamide] | < 250 nM |
| O=C(COc1ccc(Cl)c(Cl)c1)NC12CC(C(=O)Nc3ccccn3)(C1)C2 [Compound 289, 3-[2-(3,4-dichlorophenoxy)acetamido]-N-(pyridin-2-yl)bicyclo[1.1.1]pentane-1-carboxamide] | < 250 nM |
